For assay [1], the system named is human corneal epithelial-T (HCE-T) cells. Description: Scratch wound healing / cell migration in HCE-T cells. The format is cell-based. As to conditions: Ki16425 treated before gintonin. On the procedure:
HCE-T cells (RCB-2280) were purchased from a Riken cell bank. The HCE-T cells were cultured in a medium in which 10% FCS was contained in a DMEM-Ham F12 (1:1) medium (Araki-sasaki et al., Investigative Ophthalmology and Visual Science 36, 614-621, 1995; Arakisasaki et al., J cellular Physiol. 182, 189-195, 2000).
HCE-T (2.5×10^5/well) was planted in a 24-well plate and cultured for 24 hrs and then cultured for 6 hrs in a 0.2% FBS-containing DMEM medium again. The wound was made by drawing a line through the center of each well where cells grew by using a […] pipette tip and then the floating cells were washed twice with a 1% FBS-containing DMEM medium to be removed.
The cells were treated with 0.03 to 1 μg/ml of gintonin and cultured and compared with cells without treating gintonin by observing and photographing (100×) cell shapes before and after gintonin treatment of each well with an inverted fluorescence microscope (AxioVert200; Carl Zeiss).
For the analysis of the degree of cell growth in a part wounded with the pipette tip, an area of the wound part where cells were not recovered was measured using AxioVision.

Assay [2] has as its system intracytoplasmic calcium in HCE-T cells. Description: Fura 2 fluorescence measurement of [Ca^2+]i in HCE-T cell suspension. Type of assay: cell-based, human. As to conditions: LPA1/3 receptor antagonist. On the procedure: Particularly, according to a method such as Jrgensen and the like, HCE-T cells (1 to 2×10^6 cell/ml) were mixed in […] Fura 2-AM while being shaken for 30 minutes at a 37° C. incubator by using a Ca^2+-containing buffer (pH 7.4) consisting of NaCl 120 mM, KCl 5 mM, MgCl2 1 mM, CaCl2 1.5 mM, glucose 10 mM, and HEPES 25 mM and a Ca^2+-free buffer (pH 7.4) consisting of NaCl 120 mM, KCl 5 mM, MgCl2 1 mM, EGTA 0.2 mM, glucose 10 mM, and HEPES 25 mM, and an excessive amount of fura-2 was removed by washing the cells with the Ca^2+ buffer or the Ca^2+-free buffer three times.
[Ca^2+]i was estimated in the Fura 2-loaded cells by using a RF-5300PC intracellular ion measurement system (Shimadzu Corporation, Japan). […] Excitation wavelengths were alternated between 340 and […] under a computer control and emission was detected at 510. […]
A measured ratio value of 340:380 was converted to a value of [Ca^2+]i by using Equation of Hounsell and the like (Hounsell, E. F., Davies, M. J., and Smith, K. D. (1997) Protein protocol handbook, Humanna press, Totawa, 803-804). […] Further, Sf380 and Sb380 are fluorescence intensity at 380 nm when adding digitonin and EGTA and the ratios are maximum and minimum values when these values are indicated (Grynkiewicz, G., M. Poenie, and R. Y. Tsien. (1985) J Biol Chem 260: 3440-3450).

SMILES strings stand for the structures.

As to `Cc1noc(-c2ccc(CSCCC(=O)O)cc2)c1NC(=O)OC(C)c1ccccc1Cl` (centres unmarked) [Ki16425], in assay [1], the “Effect of antagonist pretreatment on gintonin-promoted cell migration” value was “the action of the gintonin is inhibited”. Further, the “Effect of antagonist on increase in intracytoplasmic calcium by gintonin” value in assay [2] is listed as “blocked”.

The values are drawn from patent publication US10568931B2, “Pharmaceutical composition comprising ginseng extracts for prevention and treatment of ophthalmological diseases” (GINTONIN KU BIOTECH Co., Ltd., priority 2017, dated 2020).
